According to the Kinase Knowledgebase extract (Sharma et al. 2016):

These molecules were tested against PIK3CA (human) (UniProt P42336) (assay: Enzyme Assay).
PIK3CA (human), sequence (P42336 whole entry, looked up): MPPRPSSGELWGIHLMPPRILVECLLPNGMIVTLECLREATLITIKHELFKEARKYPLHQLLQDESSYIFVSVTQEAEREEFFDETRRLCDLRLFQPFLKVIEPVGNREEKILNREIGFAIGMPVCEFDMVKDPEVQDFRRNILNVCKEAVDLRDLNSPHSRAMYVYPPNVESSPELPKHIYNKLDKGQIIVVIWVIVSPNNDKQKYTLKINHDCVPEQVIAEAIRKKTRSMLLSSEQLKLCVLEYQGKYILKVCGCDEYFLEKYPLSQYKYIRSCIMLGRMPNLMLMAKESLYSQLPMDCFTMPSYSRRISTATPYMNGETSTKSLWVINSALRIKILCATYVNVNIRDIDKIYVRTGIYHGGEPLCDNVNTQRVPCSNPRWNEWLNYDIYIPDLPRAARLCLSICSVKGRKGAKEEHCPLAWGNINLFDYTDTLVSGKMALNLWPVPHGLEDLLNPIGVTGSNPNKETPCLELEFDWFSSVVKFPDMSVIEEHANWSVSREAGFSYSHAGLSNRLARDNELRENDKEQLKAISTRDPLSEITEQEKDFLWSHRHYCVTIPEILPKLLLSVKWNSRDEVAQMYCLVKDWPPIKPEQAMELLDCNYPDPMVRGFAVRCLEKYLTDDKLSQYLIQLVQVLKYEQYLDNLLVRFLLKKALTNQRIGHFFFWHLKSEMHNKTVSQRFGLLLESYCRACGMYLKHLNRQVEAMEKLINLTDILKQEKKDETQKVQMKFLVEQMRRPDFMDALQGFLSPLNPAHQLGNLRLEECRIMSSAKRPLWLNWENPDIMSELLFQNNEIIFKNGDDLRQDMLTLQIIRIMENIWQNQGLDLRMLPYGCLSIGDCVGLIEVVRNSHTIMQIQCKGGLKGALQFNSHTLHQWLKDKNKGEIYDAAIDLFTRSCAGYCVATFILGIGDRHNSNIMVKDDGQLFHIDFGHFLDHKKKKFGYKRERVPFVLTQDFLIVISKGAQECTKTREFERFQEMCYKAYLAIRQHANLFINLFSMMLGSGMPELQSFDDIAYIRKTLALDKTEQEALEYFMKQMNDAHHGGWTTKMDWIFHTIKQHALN

Compound	IC50 [nM]
COC(=O)Nc1ccc(-c2ccc3ncc4c(c3c2)n(-c2cccc(C)c2C)c(=O)n4C)cn1	31
COC(=O)Nc1ccc(-c2ccc3ncc4c(c3c2)n(-c2ccc(F)c(Cl)c2)c(=O)n4C)cn1	94
COCCOc1cncc(-c2ccc3ncc4c(c3c2)n(-c2ccc(F)c(C(F)(F)F)c2)c(=O)n4C)c1	107
Cn1c(=O)n(-c2ccc(C(C)(C)C#N)cc2)c2c3cc(-c4ccc(NC(=O)C(F)(F)F)nc4)ccc3ncc21	33
COCC(=O)Nc1ccc(-c2ccc3ncc4c(c3c2)n(-c2ccc(F)c(C(F)(F)F)c2)c(=O)n4C)cn1	90
COC(=O)Nc1ccc(-c2ccc3ncc4c(c3c2)n(-c2cccc(F)c2C)c(=O)n4C)cn1	40
CNC(=O)Nc1ccc(-c2ccc3ncc4c(c3c2)n(-c2c(C)cccc2C)c(=O)n4C)cn1	107
Cn1c(=O)n(-c2ccc(C(C)(C)C#N)cc2)c2c3cc(-c4ccc(NC(=O)NCCO)nc4)ccc3ncc21	22
CCOC(=O)Nc1ccc(-c2ccc3ncc4c(c3c2)n(-c2cccc(C(F)(F)F)c2)c(=O)n4C)cn1	103
COC(=O)Nc1ccc(-c2ccc3ncc4c(c3c2)n(-c2ccccc2C)c(=O)n4C)cn1	48
COC(=O)Nc1ccc(-c2ccc3ncc4c(c3c2)n(-c2ccc(F)c(C(F)(F)F)c2)c(=O)n4C)cn1	25
Cc1ncc(-c2ccc3ncc4c(c3c2)n(-c2ccc(C(C)(C)C#N)cc2)c(=O)n4C)cc1OC(F)F	133
COCC(=O)Nc1cncc(-c2ccc3ncc4c(c3c2)n(-c2ccc(C(C)(C)C#N)cc2)c(=O)n4C)c1	63
Cn1c(=O)n(-c2ccc(F)c(Cl)c2)c2c3cc(-c4cncc(OCCF)c4)ccc3ncc21	47
COCC(=O)Nc1ccc(-c2ccc3ncc4c(c3c2)n(-c2cccc(C(F)(F)F)c2)c(=O)n4C)cn1	32
Cn1c(=O)n(-c2ccc(C(C)(C)C#N)cc2)c2c3cc(-c4ccc(NC(=O)NC5CCOC5)nc4)ccc3ncc21 (stereo unspecified)	44
Cn1c(=O)n(-c2ccc(C(C)(C)C#N)cc2)c2c3cc(-c4ccc(NC(=O)CC#N)nc4)ccc3ncc21	24

Compound	IC50 [nM]
COC(=O)Nc1ccc(-c2ccc3ncc4c(c3c2)n(-c2cccnc2OC)c(=O)n4C)cn1	57
COCCOc1cc(-c2ccc3ncc4c(c3c2)n(-c2cccc(C(F)(F)F)c2)c(=O)n4C)cnc1C	40
Cn1c(=O)n(-c2cccc(C(F)(F)F)c2)c2c3cc(-c4cncc(OCCF)c4)ccc3ncc21	115
Cn1c(=O)n(-c2ccc(C(C)(C)C#N)cc2)c2c3cc(-c4cncc(OCC#N)c4)ccc3ncc21	22
CNC(=O)Nc1ccc(-c2ccc3ncc4c(c3c2)n(-c2cccc(F)c2)c(=O)n4C)cn1	21
COC(=O)Nc1ccc(-c2ccc3ncc4c(c3c2)n(-c2ccc(Cl)cc2Cl)c(=O)n4C)cn1	85
C#Cc1cncc(-c2ccc3ncc4c(c3c2)n(-c2cccc(C(F)(F)F)c2)c(=O)n4C)c1	22
COC(=O)Nc1cncc(-c2ccc3ncc4c(c3c2)n(-c2cccc(Cl)c2C)c(=O)n4C)c1	80
COCCOc1cncc(-c2ccc3ncc4c(c3c2)n(-c2ccc(C(C)(C)C#N)cc2)c(=O)n4C)c1	76
CNC(=O)Nc1ccc(-c2ccc3ncc4c(c3c2)n(-c2ccc(Cl)cc2Cl)c(=O)n4C)cn1	87
COC(=O)Nc1ccc(-c2ccc3ncc4c(c3c2)n(-c2cccc(Cl)c2C)c(=O)n4C)cn1	27
Cn1c(=O)n(-c2ccc(C(C)(C)C#N)cc2)c2c3cc(-c4cncc(OCCF)c4)ccc3ncc21	23
COC(=O)Nc1cncc(-c2ccc3ncc4c(c3c2)n(-c2cccc(C(F)(F)F)c2)c(=O)n4C)c1	146
C=CC(=O)Nc1ccc(-c2ccc3ncc4c(c3c2)n(-c2cccc(C(F)(F)F)c2)c(=O)n4C)cn1	45
Cc1c(F)cccc1-n1c(=O)n(C)c2cnc3ccc(-c4cncc(OCC#N)c4)cc3c21	66
C=CC(=O)Nc1ccc(-c2ccc3ncc4c(c3c2)n(-c2cccc(F)c2C)c(=O)n4C)cn1	52
COCc1ccc(-c2ccc3ncc4c(c3c2)n(-c2ccc(C(C)(C)C#N)cc2)c(=O)n4C)cn1	44

Continued, values first:

IC50 [nM]	Compound
6	Cn1c(=O)n(-c2ccc(C(C)(C)C#N)cc2)c2c3cc(-c4ccc(NC(=O)C5CC5)nc4)ccc3ncc21
21	Cc1ncc(-c2ccc3ncc4c(c3c2)n(-c2cccc(F)c2C)c(=O)n4C)cc1OCCF
10	Cn1c(=O)n(-c2ccc(C(C)(C)C#N)cc2)c2c3cc(-c4cncc(OC(F)F)c4)ccc3ncc21
4	CNC(=O)Nc1ccc(-c2ccc3ncc4c(c3c2)n(-c2ccccc2C(F)(F)F)c(=O)n4C)cn1
21	CNC(=O)Nc1ccc(-c2ccc3ncc4c(c3c2)n(-c2ccc(C(C)(C)C#N)cc2)c(=O)n4C)cn1
14	C/C=C/C(=O)Nc1ccc(-c2ccc3ncc4c(c3c2)n(-c2ccc(C(C)(C)C#N)cc2)c(=O)n4C)cn1
5	CNC(=O)Nc1ccc(-c2ccc3ncc4c(c3c2)n(-c2ccc(F)c(C(F)(F)F)c2)c(=O)n4C)cn1
6	CNC(=O)Nc1ccc(-c2ccc3ncc4c(c3c2)n(-c2cccc(Cl)c2C)c(=O)n4C)cn1
6	C#Cc1ccc(-c2ccc3ncc4c(c3c2)n(-c2ccc(C(C)(C)C#N)cc2)c(=O)n4C)cn1
8	CNC(=O)Nc1ccc(-c2ccc3ncc4c(c3c2)n(-c2ccc(F)cc2)c(=O)n4C)cn1
3	CNC(=O)Nc1ccc(-c2ccc3ncc4c(c3c2)n(-c2ccc(N3CCN(C)CC3)c(C(F)(F)F)c2)c(=O)n4C)cn1
5	CNC(=O)Nc1ccc(-c2ccc3ncc4c(c3c2)n(-c2cccc(F)c2Cl)c(=O)n4C)cn1
19	CNC(=O)Nc1ccc(-c2ccc3ncc4c(c3c2)n(-c2cccnc2OC)c(=O)n4C)cn1
9	COC(=O)Nc1cncc(-c2ccc3ncc4c(c3c2)n(-c2ccc(C(C)(C)C#N)cc2)c(=O)n4C)c1
19	Cn1c(=O)n(-c2ccc(C(C)(C)C#N)cc2)c2c3cc(-c4cncc(OCC(F)(F)F)c4)ccc3ncc21
18	Cn1c(=O)n(-c2cccc(C(F)(F)F)c2)c2c3cc(-c4ccc(NC(=O)CC#N)nc4)ccc3ncc21
5	Cc1ncc(-c2ccc3ncc4c(c3c2)n(-c2ccc(C(C)(C)C#N)cc2)c(=O)n4C)cc1OCCF
15	COCC(=O)Nc1ccc(-c2ccc3ncc4c(c3c2)n(-c2ccc(C(C)(C)C#N)cc2)c(=O)n4C)cn1
19	Cn1c(=O)n(-c2ccc(C(C)(C)C#N)cc2)c2c3cc(-c4ccc(NC=O)nc4)ccc3ncc21

IC50 [nM]	Compound
7	CNC(=O)Nc1ccc(-c2ccc3ncc4c(c3c2)n(-c2cccc(F)c2C)c(=O)n4C)cn1
12	COC(=O)Nc1ccc(-c2ccc3ncc4c(c3c2)n(-c2ccccc2C(F)(F)F)c(=O)n4C)cn1
2	CNC(=O)Nc1ccc(-c2ccc3ncc4c(c3c2)n(-c2cccc(C(F)(F)F)c2)c(=O)n4C)cn1
3	CNC(=O)Nc1ccc(-c2ccc3ncc4c(c3c2)n(-c2cccc(Cl)c2F)c(=O)n4C)cn1
18	COCCOc1cc(-c2ccc3ncc4c(c3c2)n(-c2ccc(C(C)(C)C#N)cc2)c(=O)n4C)cnc1C
5	C=CC(=O)Nc1ccc(-c2ccc3ncc4c(c3c2)n(-c2ccc(C(C)(C)C#N)cc2)c(=O)n4C)cn1
4	COC(=O)Nc1ccc(-c2ccc3ncc4c(c3c2)n(-c2cccc(Cl)c2F)c(=O)n4C)cn1
12	CNC(=O)Nc1ccc(-c2ccc3ncc4c(c3c2)n(-c2ccc(F)cc2C)c(=O)n4C)cn1
14	Cc1ncc(-c2ccc3ncc4c(c3c2)n(-c2cccc(C(F)(F)F)c2)c(=O)n4C)cc1OCCF
2.4	COC(=O)Nc1ccc(-c2ccc3ncc4c(c3c2)n(-c2ccc(C(F)(F)F)nc2C)c(=O)n4C)cn1
9	CNC(=O)Nc1ccc(-c2ccc3ncc4c(c3c2)n(-c2ccc(Cl)cc2C)c(=O)n4C)cn1
6	COC(=O)Nc1ccc(-c2ccc3ncc4c(c3c2)n(-c2cccc(C(F)(F)F)c2)c(=O)n4C)cn1
12	CNC(=O)Nc1ccc(-c2ccc3ncc4c(c3c2)n(-c2ccccc2C)c(=O)n4C)cn1
12	C#Cc1cncc(-c2ccc3ncc4c(c3c2)n(-c2ccc(C(C)(C)C#N)cc2)c(=O)n4C)c1
3	CNC(=O)Nc1ccc(-c2ccc3ncc4c(c3c2)n(-c2cccc(C)c2C)c(=O)n4C)cn1
15	COC(=O)Nc1ccc(-c2ccc3ncc4c(c3c2)n(-c2cccc(C(F)(F)F)c2C)c(=O)n4C)cn1
1	CNC(=O)Nc1ccc(-c2ccc3ncc4c(c3c2)n(-c2cccc(C(F)(F)F)c2C)c(=O)n4C)cn1
16	COC(=O)Nc1ccc(-c2ccc3ncc4c(c3c2)n(-c2cccc(F)c2Cl)c(=O)n4C)cn1
